According to a melting point compilation (Tetko et al.; mined from patent text by program, amines drawn as free bases though some values may be those of a salt):
Residues, ends and D or L forms follow the SMILES beside them. *: point of attachment. Boc = CC(C)(C)OC(=O)*; NHNH2 = NN*

Row | Compound | melting point [°C]
1 | O=S(=O)(OCC1OC2CC(CC(OS(=O)(=O)c3ccc(Br)cc3)C2)O1)c1ccc(Br)cc1 (configuration not stated) | 128
2 | Cc1oc(-c2ccco2)nc1COc1ccc(COc2ncccc2C=O)cc1 | 109 to 110
3 | O=C(CCl)c1ccc(-c2ccc(SC(F)F)cc2)cc1 | 102 to 104
4 | CC(C)(C)c1cc(C2=CCCCC2)c(O)c(C(C)(C)C)c1 | 102 to 104
5 | COc1cc(-c2nc3ccc(OCCN(C)C)cc3n2Cc2ccccc2C(F)(F)F)cc(OC)c1OC | 151
6 | CC(C)(C)Cc1c(C(C)(C)C)ssc1=S | 81
7 | CSC(=O)c1c(O)ccc2ccccc12 | 111 to 112
8 | O=C(O)CCCCCCCCCCc1cccs1 | 41 to 42
9 | CSC(=NC(=O)CS(C)(=O)=O)N(C)N=Cc1ccccc1 | 150
10 | NC(=O)N(O)CC(=O)Nc1ccc(Oc2ccccc2)cc1 | 190
11 | COc1ccc(C(=O)CCCCCl)cc1S(=O)(=O)Cl | 69 to 70
12 | COc1ccc([C@H](O)[C@@H](Cc2ccc(C(F)(F)F)cc2)NC(=O)CCc2ccccc2)cc1 (racemic) | 116 to 117
13 | Cc1cc(OCCCS(C)(=O)=O)cc(C)c1-c1cccc2c1OC[C@H]2Nc1ccc2c(c1)OC[C@H]2CC(=O)O | 169
14 | COCCNc1nc(-n2ccnc2)nc2ccc(CO)cc12 | 165 to 168
15 | Cc1c(-c2ccccc2Cl)n(-c2ccccc2)c(-c2ccccc2F)cc1=O | 182 to 183
16 | COc1ccc(C(=O)Nc2cc(NC(=O)c3cccc(N(C)S(C)(=O)=O)c3)ccc2C)cc1OC | 168 to 169
17 | N=C(N)c1ccc(N2CCN(c3ccc(CCC(=O)O)cc3)S2(=O)=O)cc1 | > 275
18 | CNC(=O)c1ccc(-c2nn(Cc3ccccc3)c3ccccc23)o1 | 182 to 183
19 | CC(C)OC(=O)c1cc([N+](=O)[O-])c(O)c([N+](=O)[O-])c1 | 108 to 110
20 | CSCCC(NC(=O)C(CCCCNC(=O)OC(C)(C)C)NC(=O)C(Cc1ccc(O)cc1)NC(=O)C1CCCN1)C(=O)NN (configuration not stated) (H-PYK(Boc)M-NHNH2; configuration not given here) | 206 to 207
21 | CC(C)=CCNC(=O)Cn1ccnc1[N+](=O)[O-] | 174 to 176
22 | N#Cc1cccc(S(=O)(=O)N2CCn3c(c(C(N)=O)c(Cl)c3-c3ccccc3)C2)c1 | 243 to 245
23 | CN1CCC(=C2c3ccccc3C=Cc3ccc(C(=O)OCN4C(=O)CN(C)C4=O)cc32)CC1 | 188 to 189

Row | Compound | melting point [°C]
24 | NC(=O)C1CCN(c2c(Br)cncc2-c2ccccc2)CC1 | 220 to 222
25 | CC1COC(C2CCC(O)C2)N1C(=O)c1ccccc1 (configuration not stated) | 83 to 85
26 | CCN(Cc1ccc(OC(C)(C)C(=O)O)c(C)c1)c1cc(-c2ccc(Cl)cc2)nn1C | 208
27 | CC(=O)c1cc2c(s1)SCCc1cc(=O)n(-c3ccc(Cl)cc3)nc1-2 | 248 to 250
28 | CCOC(=O)c1cc(-c2ccc(Cl)cc2Cl)c(-c2ccc(Cl)cc2)nc1C | 114
29 | Cc1nc2ccc3c(c2o1)OC(CN1CC=C(c2c[nH]c4ccc(C#N)cc24)CC1)CO3 (configuration not stated) | 119
30 | CCc1ccc2c(c1)c(-c1ccccc1Cl)c(NC(=O)Nc1c(C)cccc1C(C)C)c(=O)n2C | 198 to 199
31 | CCOC(=O)c1c2n(c3c(F)c(N4CCC(NC(=O)C(F)(F)F)C4)c(F)cc3c1=O)C(C)S2 (configuration not stated) | 235 to 237
32 | Cc1cc(C(C)N(O)C(N)=O)ccc1Cl (configuration not stated) | 129 to 131
33 | Fc1cc2c(Nc3ccc(OCc4cccc(Cl)c4)c(Cl)c3)ncnc2cn1 | 196 to 198
34 | O=c1oc2ccc(-c3ccc(F)cc3F)cc2c(=O)n1-c1ccc(F)cc1F | 155 to 156
35 | Oc1ccc(C(F)(F)F)cc1-n1nc2ccccc2n1 | 119 to 120
36 | Cc1c(S(=O)c2cc(Cl)c(Cl)cc2Cl)cc(C(C)(C)C)c(O)c1C(=O)Nc1ccc([N+](=O)[O-])cc1Cl (configuration not stated) | 245 to 246
37 | Nc1ncn(C[C@H](O)COC(c2ccccc2)(c2ccccc2)c2ccccc2)c(=O)n1 | 130 to 132
38 | CCCCN(CCCC)C(=O)CC(C)Nc1c(C#N)cnn1-c1ccc(Cl)c(Cl)c1Cl (configuration not stated) | 101 to 103
39 | O=C1NCCCN1C1(CO)CCNCC1 | 162
40 | O=C(O)/C=C/c1ccc(-c2nc3c(=O)n(CCC4CCCCC4)c(=O)n(CCC4CCCCC4)c3[nH]2)cc1 | > 250
41 | CCOC(=O)Nc1cc(N2CCN(c3ccc([N+](=O)[O-])cc3)CC2)ccn1 | 243 to 245
42 | CCOC(=O)[C@H](C[C@H](Cc1ccc(OC)c(OCCCOC)c1)C(C)C)NC(=O)OC(C)(C)C | 59 to 60
43 | CCCCN1CCC[C@H]1CNC(=O)c1cc(Cl)cc2c1OC(C)(C)CN2C | 110 to 112
44 | CC(C)(C)c1ccc(CC(=O)CCCC2CCCCC2)cc1NC(=O)CC1c2ccccc2Oc2ccccc21 | 146 to 147
45 | COCCOc1ccc([N+](=O)[O-])cc1S(=O)(=O)Cl | 74 to 74.5
46 | O=C(C(Cl)Cl)N1CCSC12CCCCC2 | 149 to 151

Row | Compound | melting point [°C]
47 | CCCn1cc(Cc2ccc(C(=O)O)cc2OC)c2cc(CC3CCN(C)C3=O)ccc21 (configuration not stated) | 98 to 107
48 | CCOC(=O)C(CCC(=O)c1ccc(F)cc1)(NC(C)=O)C(=O)OCC | 73
49 | Cc1ccc(S(=O)(=O)c2cn(C(=O)OC(C)(C)C)c3cc(-c4ccc(F)cc4)ccc23)cc1 | 135
50 | Cc1cc2nc3ccccc3sc-2c(Br)c1=O | 190
51 | CC(=O)n1nc(-c2c(C)cc(C)c([N+](=O)[O-])c2C)n2nc(C(C)(C)C)cc12 | 169 to 171
52 | CC(C)(C)c1ccc(S(=O)(=O)N2c3ccccc3C[C@H]2C(=O)NCc2ccc(C(=O)O)cc2)cc1 | 105 to 120
53 | CC(C)(C)c1cc(C(c2ccc(C#N)cc2)N2CCCCC2)c(O)c(C(C)(C)C)c1 (configuration not stated) | 165 to 166
54 | COC(=O)C1=C(CF)NC(C)=C(C(=O)OC(C)C)C1c1cccc([N+](=O)[O-])c1Cl (configuration not stated) | 156 to 157
55 | CCC(=O)n1c(=O)n(-c2ccc([N+](=O)[O-])cc2)c(=O)n1C(=O)CC | 140 to 142
56 | NCc1cccc(OCCC2Oc3ccccc3N(Cc3cccc(Cl)c3)C2=O)c1 (configuration not stated) | 124 to 129
57 | C#CCOc1cc(-c2ncc(C(F)(F)F)c(C)c2Cl)c(F)cc1Cl | 95 to 98
58 | Nc1c(Cl)ncnc1NCCc1ccccc1 | 156 to 157
59 | Cc1cc(C)c2c(c1)OC(C)(COc1ccc([N+](=O)[O-])cc1)C=C2 (configuration not stated) | 116 to 118
60 | O=C(NCC12CC3CC(CC(C3)C1)C2)c1cc(-c2ncccc2OCc2nnn[nH]2)ccc1Cl | 122 to 126
61 | O=C1CCC(=O)C(c2ccccc2)N1 (configuration not stated) | 160 to 164
62 | C[C@@H]1Cc2cc3c(cc2C(c2ccc(N)cc2)=NN1c1ccccn1)OCO3 | 128 to 130
63 | COC(=O)[C@H]1Cc2c(sc3ccccc23)[C@@H](c2cccc(O)c2)N1 | 283 to 285
64 | COc1c(O)ccc2c1OCC2=O | 160
65 | O=Cc1ccc(NCc2ccc(F)cc2)cn1 | 167 to 169
66 | Cc1nc(NC(=O)c2cc(F)cc(F)c2)sc1C(=O)NCc1ccccc1 | 84 to 86
67 | O=[N+]([O-])c1ccc2nc3c(nc2c1)OCC1CCCN31 (configuration not stated) | 234 to 237
